SMILES strings stand for the structures. Where only a bound is given, the exact number is not on record here.

One test deals with NSP14 (Severe acute respiratory syndrome coronavirus 2, UniProt P0DTD1). The test can be described thus: NSP14 MTase inhibition assay at 37° C. (MTase-Glo SAH detection). Format: biochemical, SARS-CoV-2. The settings on record: 0.3 nM NSP14, 2.5 μM SAM, 2.5 μM GpppA RNA, 45 min at 37° C.; read-out: Nsp14 Mtase Inh. IC50. As to the method: NSP14 MTase assay at 37° C. (0.3 nM NSP14 as final enzyme concentration)
The NSP14 MTase assay at 37° C. is carried out in 384-well flat bottom polystyrene microplates (Greiner, 781075). Per well, 10 μl of 1×NSP14 reaction buffer (50 mM Tris-HCl, pH 7.5, 6 mM KCl, 1.25 mM MgCl2, 1 mM DTT, and 0.01% Tween-20) are dispensed in columns 1-23 using a Thermo Multidrop Combi dispenser (Thermo Scientific). 0.1 μl of serially diluted compounds in DMSO are dispensed into columns 1-22 of the assay microplates with a Janus 384 MDT NanoHead (PerkinElmer). In wells of column 23, which serve as negative controls, no compounds are added.
The NSP14 reaction is started by adding 4 μl of a 4× substrate solution containing S-adenosyl methionine (SAM, 10 μM) and GpppA RNA (10 μM) prepared in 1×NSP14 reaction buffer. Any addition of reagents is followed by a 30 second centrifugation at 500×g to ensure that all liquid was collected at the bottom of the well. The final concentrations of NSP14, SAM, and GpppA RNA are 0.3 nM, 2.5 μM, and 2.5 μM, respectively. The final reaction volume is 16 μl. Plates are sealed and incubated for 45 min at 37° C.
For SAH detection, 1 μl 5× MTase-Glo™ Reagent (Promega) is added to each well, plates are mixed for 1-2 minutes and incubated at room temperature for 30 minutes. 5 μl of room-temperature MTase-Glo™ Detection Solution (Promega) is added to each well, plates are mixed for 1-2 minutes and incubated at room temperature for 30 minutes. Luminescence signals of each well are recorded in relative light units (RLUs) using a Biotek Synergy Neo plate reader (BioTek, Winooski, VT). The SAH production is normalized against the positive control (PK, column 24) and negative control (NK, column 23) as follows: normalized % inhibition=100×(RLUsample-RLUaverageNK)/(RLUaveragePK-RLUaverageNK).
Take `Cc1c(S(=O)(=O)c2ccc3[nH]ncc3c2)cc(C(=O)N[C@@H]2CCN(c3cnn(C)c(=O)c3)C2)n1C` [A.111]: the IC50 was below 0.15 nM. Still for that read-out and setting: the result for `Cc1c(S(=O)(=O)c2ccc3[nH]ncc3c2)cc(C(=O)N[C@@H]2CCN(c3ccccc3OC(F)(F)F)C2)n1C` [A.85] reads 27 nM; that for `Cc1c(S(=O)(=O)c2ccc3[nH]ncc3c2)cc(C(=O)N[C@@H]2CCN(c3ccc(Cl)cn3)C2)n1C` [A.44], below 0.15 nM. The same measure, in the same setting: the result for `COc1ccc(N2CC[C@@H](NC(=O)c3cc(S(=O)(=O)c4ccc5[nH]ncc5c4)c(C)n3C)C2)nn1` [A.88] reads below 0.15 nM; that for `Cc1c(S(=O)(=O)c2ccc3[nH]ncc3c2)cc(C(=O)N[C@@H]2CCN(c3ccnc(C(F)F)c3)C2)n1C` [A.107], 0.17 nM. With `Cc1c(S(=O)(=O)c2ccc3[nH]ncc3c2)cc(C(=O)N[C@@H]2CCN(c3cnnc(Cl)c3)C2)n1C` [A.118], the IC50 is below 0.15 nM. Still for that read-out and setting: with `Cc1cc(S(=O)(=O)c2cc(C(=O)NCc3c(F)ccc4occc34)n(C)c2C)cc2cn[nH]c12` [A.1, N-[(5-fluorobenzofuran-4-yl)methyl]-1,5-dimethyl-4-[(7-methyl-1H-indazol-5-yl)sulfonyl]pyrrole-2-carboxamide] the figure was 0.2 nM; with `Cc1c(S(=O)(=O)c2ccc3[nH]ncc3c2)cc(C(=O)N[C@@H]2CCN(c3cccc(C(F)(F)F)n3)C2)n1C` [A.38], 0.8 nM; with `Cc1c(S(=O)(=O)c2ccccc2)cc(C(=O)NCc2c(F)ccc3cnn(C)c23)n1C` [A.7, N-((6-fluoro-1-methyl-1H-indazol-7-yl)methyl)-1,5-dimethyl-4-(phenylsulfonyl)-1H-pyrrole-2-carboxamide], 1.7 nM.

`Cc1c(S(=O)(=O)c2ccc3[nH]ncc3c2)cc(C(=O)NCc2cccc3cnn(C)c23)n1C` [A.3]: the IC50 turned out to be 0.35 nM. Consider `Cc1c(S(=O)(=O)c2ccccc2)cc(C(=O)NCc2cccnc2N2CCCC2)n1C` [A.22], for which the IC50 is 67 nM.

As for `Cc1c(S(=O)(=O)c2ccc3[nH]ncc3c2)cc(C(=O)N[C@@H]2CCN(c3cccc(C#N)c3)C2)n1C` [A.84], the IC50 was below 0.15 nM. As for `Cc1c(S(=O)(=O)c2ccc3[nH]ncc3c2)cc(C(=O)N[C@@H]2CCN(c3ncncc3C#N)C2)n1C` [A.121], the IC50 was 0.3 nM. Turning to `Cc1c(S(=O)(=O)c2ccc3[nH]ncc3c2)cc(C(=O)N[C@@H]2CCN(c3ncccn3)C2)n1C` [A.64], the IC50 stood at 0.78 nM. Regarding `COCC1(NC(=O)c2cc(S(=O)(=O)c3ccc4[nH]ncc4c3)c(C)n2C)CCN(c2ncc(F)cn2)C1` (single isomer, unassigned) [A.114, 4-((1H-indazol-5-yl)sulfonyl)-N-(1-(5-fluoropyrimidin-2-yl)-3-(methoxymethyl)pyrrolidin-3-yl)-1,5-dimethyl-1H-pyrrole-2-carboxamide], the IC50 worked out at 0.87 nM.

Regarding `Cc1c(S(=O)(=O)c2ccc(=O)n(C)c2)cc(C(=O)NCc2cccc3cnn(C)c23)n1C` [A.15], the IC50 worked out at 13.4 nM. On to `Cc1c(S(=O)(=O)c2ccc3[nH]ncc3c2)cc(C(=O)NCc2c(F)ccc3occc23)n1C` [A.2], for which the IC50 turned out to be 0.32 nM. The same measure, in the same setting: with `Cc1c(S(=O)(=O)c2ccc3[nH]ncc3c2)cc(C(=O)N[C@@H]2CCN(c3ncccc3F)C2)n1C` [A.43] the figure was 0.42 nM; with `Cc1c(S(=O)(=O)c2cc(F)c3[nH]ncc3c2)cc(C(=O)N[C@@H]2CCN(c3ncc(F)cn3)C2)n1C` [A.40], below 0.15 nM.

Staying with this test, now noted: 37° C., 0.3 nM NSP14, 2.5 μM SAM, 2.5 μM GpppA RNA; read-out: Nsp14 Mtase Inh. IC50.
Turning to `Cn1ncc(Cl)c1CNC(=O)c1cc(S(=O)(=O)c2cccc(C#N)c2)c2n1CCC2` [B.192], the IC50 came out at 98 nM.

As to `Cc1cc(S(=O)(=O)c2cc(C(=O)NCc3c(F)ccc4ncn(C5CC5)c34)n(C)c2C)cc2cn[nH]c12` [B.27], the IC50 came out at 0.21 nM. As for `Cc1c(S(=O)(=O)c2cc(C(F)(F)F)c3[nH]ncc3c2)cc(C(=O)NCc2c(F)ccc3nnn(C4CC4)c23)n1C` [B.144], the IC50 is 1 nM. Consider `COCCn1c(C(=O)NCc2c(Cl)cnn2C)cc(S(=O)(=O)c2cc(Cl)c3[nH]ncc3c2)c1C` [B.194], for which the IC50 is 1.1 nM. As to `Cc1c(S(=O)(=O)c2ccc3[nH]ncc3c2)cc(C(=O)NCc2ccnn2C)n1C` [B.100], the 50% inhibitory concentration (IC50) amounted to 12 nM.

For the compound `Cc1c(S(=O)(=O)c2ccc3[nH]ncc3c2)cc(C(=O)NCc2c(F)ccc3c2N(C)C(=O)C3(C)C)n1C` [B.119], the half-inhibitory concentration (IC50) turned out to be 0.21 nM. Same read-out and setting: the result for `Cc1c(S(=O)(=O)c2ccc3[nH]ncc3c2)cc(C(=O)NCc2nccc3ncn(C4CC4)c23)n1C` [B.117] reads 0.18 nM. For the compound `Cc1c(S(=O)(=O)c2ccc3[nH]ncc3c2)cc(C(=O)NCc2c(F)ccc(OCCCCC(=O)O)c2F)n1C` [B.125], the IC50 was below 0.15 nM. Regarding `Cc1c(S(=O)(=O)c2ccc3c(=O)[nH]ccc3c2)cc(C(=O)NCc2c(F)ccc3cnn(C4CC4)c23)n1C` [B.136], the IC50 is below 0.15 nM. On the same count and under the same terms, with `Cc1c(S(=O)(=O)c2ccc3[nH]ncc3c2)cc(C(=O)NCc2cnc3ccccn23)n1C` [B.138] the figure was 6.3 nM; with `Cc1c(S(=O)(=O)c2ccc3[nH]nc(F)c3c2)cc(C(=O)NCc2c(F)ccc3nnn(C4CC4)c23)n1C` [B.82], below 0.15 nM. `Cc1c(S(=O)(=O)c2cc(F)c3[nH]ncc3c2)cc(C(=O)N[C@@H](C)c2cccc3cnn(C4CC4)c23)n1C` (single isomer, unassigned) [B.87]: the IC50 was 0.82 nM.

Regarding `Cc1c(S(=O)(=O)c2ccc3[nH]ncc3c2)cc(C(=O)NCc2c[nH]c(=O)c3ncccc23)n1C` [B.155], the IC50 is 0.3 nM.

As to `Cc1c(S(=O)(=O)c2ccc3[nH]ncc3c2)cc(C(=O)NC2CCc3ccc(C(F)(F)F)cc32)n1C` (racemic) [B.72], the IC50 came out at 33 nM. On the same count and under the same terms, the result for `Cc1c(S(=O)(=O)c2ccc3[nH]ncc3c2)cc(C(=O)NCc2c(F)cc[nH]c2=O)n1C` [B.113] reads 0.34 nM; that for `Cc1c(S(=O)(=O)c2ccc3[nH]ncc3c2)cc(C(=O)NCc2cccc3c2N(C)C(=O)C32CC2)n1C` [B.32], 0.18 nM; that for `Cc1c(S(=O)(=O)c2ccc3[nH]ncc3c2)cc(C(=O)NCc2c(F)ccc3cnn(C4CC4)c23)n1C` [B.16], 0.38 nM. For `O=C(NCc1c(F)ccc2ncn(C3CC3)c12)c1cc(S(=O)(=O)c2ccc3[nH]nc(F)c3c2)c2n1CCC2` [B.91], the IC50 is 0.28 nM.

Take `COc1ccc(CNC(=O)c2cc(S(=O)(=O)c3ccc4[nH]nc(F)c4c3)c(C)n2C)c(C(F)(F)F)n1` [B.176]: the IC50 stood at 7 nM. Same read-out and setting: the result for `Cc1c(S(=O)(=O)c2ccc3[nH]nc(F)c3c2)cc(C(=O)NCc2cncnc2N2CCC(F)(F)C2)n1C` [B.38] reads 0.56 nM. In the case of `Cc1c(S(=O)(=O)c2ccc3[nH]ncc3c2)cc(C(=O)NCc2[nH]c(=O)ccc2F)n1C` [B.189], the IC50 was 0.37 nM. For the compound `Cc1c(S(=O)(=O)c2ccc3[nH]ncc3c2)cc(C(=O)NCc2cccnc2N2CCC(F)(F)C2)n1C` [B.20], the IC50 worked out at 0.75 nM. On the same count and under the same terms, with `Cc1c(S(=O)(=O)c2ccc3[nH]ncc3c2)cc(C(=O)NCc2c(F)cncc2F)n1C` [B.107] the figure was 0.12 nM; with `Cc1c(S(=O)(=O)c2ccc3[nH]ncc3c2)cc(C(=O)NC2CCc3cc(F)c(F)cc32)n1C` (racemic) [B.92], 27 nM; with `Cc1c(S(=O)(=O)c2cc(F)c3[nH]ncc3c2)cc(C(=O)NCc2c(F)ccc3cnn(C4CC4)c23)n1CCO` [B.89], 0.1 nM. On the same count and under the same terms, the result for `Cc1c(S(=O)(=O)c2ccc3[nH]ncc3c2)cc(C(=O)NCc2ccnn2C(F)F)n1C` [B.165] reads 14 nM; that for `Cc1c(S(=O)(=O)c2ccc3[nH]ncc3c2)cc(C(=O)NCc2cccc3c(F)n[nH]c23)n1C` [B.31], 5.4 nM. Regarding `Cc1c(S(=O)(=O)c2ccc3[nH]ncc3c2)cc(C(=O)NCc2ccc(=O)n(C)n2)n1C` [B.133], the IC50 is 7.6 nM. As to `O=C(NCc1c(F)ccc2ncn(C3CC3)c12)c1cc(S(=O)(=O)c2cc(F)c3[nH]ncc3c2)c2n1CCC2` [B.90], the IC50 turned out to be 0.21 nM. On the same count and under the same terms, with `Cc1c(S(=O)(=O)c2ccc3c(cnn3C)c2)cc(C(=O)NCc2cccnc2N2CCC(C(=O)O)C2)n1C` (stereo not drawn) [B.47] the figure was 1.7 nM; with `Cc1c(S(=O)(=O)c2ccc3[nH]ncc3c2)cc(C(=O)NCc2cccc3c2CCC(=O)N3C)n1C` [B.25], below 0.15 nM; with `Cc1c(S(=O)(=O)c2ccc3[nH]ncc3c2)cc(C(=O)NC2CCc3cc(C#N)ccc32)n1C` (stereo not drawn) [B.54], 2.3 nM. On the same count and under the same terms, the result for `Cc1c(S(=O)(=O)c2ccc3[nH]ncc3c2)cc(C(=O)NCc2c(F)cc(F)c3cnn(C)c23)n1C` [B.69] reads below 0.15 nM.

As to `Cc1c(S(=O)(=O)c2ccc3[nH]ncc3c2)cc(C(=O)NCc2c(Cl)cnn2C)n1C1CC1` [B.188], the IC50 is 1.6 nM. Consider `Cc1c(S(=O)(=O)c2ccc3[nH]ncc3c2)cc(C(=O)NCc2cccc3nnn(C)c23)n1C` [B.34], for which the 50% inhibitory concentration (IC50) was determined as 0.2 nM.

The IC50 is the concentration needed to halve the response being measured.

Values taken from US20260226034A1 (The Rockefeller University, priority 2023, published 2026).
